{"source": "patent US4707481A", "about": "“Pyridazinones, their preparation and use, and bronchospasmolytic medicaments containing pyridazinones” (BYK Gulden Lomberg Chemische Fabrik GmbH, priority 1983, dated 1987)", "key": {"[1]": {"assay": "toxicity studies, mouse p.o.", "details": "in vivo, po", "protocol": "The toxicity studies are carried out on female NMRI mice (body weight 23-30 g). The animals (5 animals per dose) receive food and water ad libitum. Various doses of the substances are administered once as a suspension in methocel via a gavage. The period of observation lasts 7 days. The tolerated dose (TD), that is to say the highest dose at which as yet none of the animals die, is determined by observation. The average lethal dose (LD50), that is to say the dose at which 50% of the animals die, is determined from the dose/action curve by means of linear regression."}, "[2]": {"test_system": "right ventricle of guinea pigs", "assay": "heart function dP/dtmax, right ventricle of anesthetized guinea pigs", "assay_type": "in vivo, guinea pig", "protocol": "The effect of the substances on the contractility of the heart of guinea pigs is tested on animals (.male., 400 to 1000 g) under urethane anesthesia. The change in pressure in the right ventricle of the heart is measured with a tip catheter introduced through the right jugular vein and the maximum rate of pressure rise (dP/dtmax) is determined from this. The heart rate is derived from the pressure waves. […] The test substances were administered intravenously. 5-7 animals were used for each measurement, and the arithmetic mean was calculated from the results."}, "[3]": {"test_system": "chain of tracheal rings of guinea pigs", "assay": "relaxing action on chain of tracheal rings in vitro (bronchospasmolytic action)", "set-up": "species or system guinea pig", "details": "for EC50: Cavia porcellus, Column A, negative logarithm of EC50 in mol/l, 50% of maximum relaxation by (-)isoprenaline, read-out: -lg[EC50] trachea (converted); for [EC40 pot.] left atrium / [EC50] trachea: Column C, measure of organ-selective activity; for [EC50] theophylline / [EC50] substance: Column D, trachea", "procedure": "The relaxing action of the 6-aryl-3[2H]pyridazinones I has been tested in vitro on a chain of tracheal rings (Tr.) of guinea pigs. […] The quotient of [EC40pot. ]left atrium and [ED50 ]trachea serves as a measure of the organ-selective activity.\nThe bronchospasmolytic action of the compounds on the chain of tracheal rings of the guinea pig was tested in vitro:\nFour parallel chains of tracheal rings, each consisting of 6 individual rings, of guinea pigs(.male. and .female., 430-600 g) in an organ bath [5 ml, Krebs-Henseleit solution with added phentolamine (10^-5 mol/l), 37° C., initial tension of the organs 2 g, gassing with carbogen] develop a stable, spontaneous tonic contraction after about 20 to 30 minutes. […] Over a period of 20 to 30 minutes, a complete dose/action curve of the test substance is thus obtained. The particular relaxation is expressed as a percentage fraction of the maximum relaxation which can be achieved by administration of (-)isoprenaline (10^-6 mol/1). The concentration of the test substance which causes 50% of the maximum relaxation which can be achieved, expressed by the negative logarithm of the EC50 mol/l: -lg[EC50 ]is a measure of the bronchodilator activity."}, "[4]": {"test_system": "acetylcholine-induced bronchospasm", "assay": "protective effect against acetylcholine-induced bronchospasm in conscious guinea pigs", "assay_type": "in vivo, guinea pig", "details": "for Doubling of the latency period / Tripling of the latency period: 30 min; for Tripling of the latency period: figure in parentheses"}, "[5]": {"test_system": "guinea pig hearts isolated and perfused by the Langendorff method", "assay": "left-ventricular pressure and heart rate in isolated perfused Langendorff hearts", "details": "for Emax: Cavia porcellus; for EC20 left-ventricular pressure: dose which leads to a 20% increase in left ventricular pressure", "excerpt": "After the animals have been sacrificed by a blow to the neck and exsanguination through the carotid arteries, the thoracic cavity is opened, and the aorta is exposed and looped up with a thread. A cannula, which is attached by tubing to the apparatus from which the nutrient solution slowly drops, is introduced in the direction of the heart and the heart is, quickly after removal from the thorax, connected to the perfusion apparatus. A balloon probe, connected to a Statham pressure sensor, is advanced through a cut through the left atrium into the left ventricle, and is provided with an initial pressure of 40 mm Hg. […] The nutrient solution flowing freely from the coronary sinus into the right atrium is measured with a flow […]) and, together with the change in the left-ventricular pressure and the heart rate determined from this, is recorded on a Watanabe recorder. The substances are administered in a volume of 0.1 ml of nutrient solution, in the dosage indicated in Tab."}, "[6]": {"test_system": "electrically stimulated left atrium of rats", "assay": "positive inotropic action on electrically stimulated left atrium in vitro", "set-up": "species or system rat", "details": "for [EC40 pot.] theophylline / [EC40 pot.] substance: Column E, left atrium; for EC40: Rattus norvegicus, Column B, negative logarithm of EC40pot in mol/l, 40% increase in contraction force, read-out: -lg[EC40 pot.] left atrium (converted)"}}, "note": "Where two headings read alike, the source gives them in different places.", "data": [{"smiles": "CCCOc1cc(-c2ccc(=O)[nH]n2)ccc1OC", "note": "[Serial No. 10, 6-(4-methoxy-3-n-propoxyphenyl)-3[2H]pyridazinone]", "values": [{"measurement": "LD50 at 168 h", "setting": "[1]; Column F, mouse p.o., 7 days observation, read-out: Approximate LD50", "result": 770, "unit": "mg/kg"}, {"measurement": "Percentage change in dP/dtmax", "setting": "[2]; 0.3 μmol/kg i.v., 0-10 min (Maximum)", "result": 42, "unit": "%"}, {"measurement": "Percentage change in dP/dtmax", "setting": "[2]; 0.3 μmol/kg i.v., 10 min", "result": 16, "unit": "%"}, {"measurement": "Percentage change in dP/dtmax", "setting": "[2]; 0.3 μmol/kg i.v., 30 min", "result": 21, "unit": "%"}, {"measurement": "Percentage change in dP/dtmax", "setting": "[2]; 1 μmol/kg i.v., 0-10 min (Maximum)", "result": 97, "unit": "%"}, {"measurement": "Percentage change in dP/dtmax", "setting": "[2]; 1 μmol/kg i.v., 10 min", "result": 45, "unit": "%"}, {"measurement": "Percentage change in dP/dtmax", "setting": "[2]; 1 μmol/kg i.v., 30 min", "result": 46, "unit": "%"}, {"measurement": "Percentage change in dP/dtmax", "setting": "[2]; 3 μmol/kg i.v., 0-10 min (Maximum)", "result": 164, "unit": "%"}, {"measurement": "Percentage change in dP/dtmax", "setting": "[2]; 3 μmol/kg i.v., 10 min", "result": 90, "unit": "%"}, {"measurement": "Percentage change in dP/dtmax", "setting": "[2]; 3 μmol/kg i.v., 30 min", "result": 66, "unit": "%"}, {"measurement": "EC50", "setting": "[3]", "result": 0.468, "unit": "µM"}, {"measurement": "[EC40 pot.] left atrium / [EC50] trachea", "setting": "[3]", "result": 1.3}, {"measurement": "[EC50] theophylline / [EC50] substance", "setting": "[3]", "result": 288}, {"measurement": "Doubling of the latency period", "setting": "[4]; 100 μmol/kg p.o.", "result": "6 N of 10 animals"}, {"measurement": "Tripling of the latency period", "setting": "[4]; 100 μmol/kg p.o.", "result": "6 N of 10 animals"}, {"measurement": "Doubling of the latency period", "setting": "[4]; 300 μmol/kg p.o.", "result": "10 N of 10 animals"}, {"measurement": "Tripling of the latency period", "setting": "[4]; 300 μmol/kg p.o.", "result": "8 N of 10 animals"}, {"measurement": "protective effect compared with theophylline", "setting": "[4]; result in words", "result": "greater protective effect"}, {"measurement": "Emax", "setting": "[5]; after 500 nMol, read-out: Emax left-ventricular pressure", "result": 61, "unit": "%"}, {"measurement": "Emax", "setting": "[5]; at Emax, 500 nMol, read-out: Percentage increase in heart rate at Emax", "result": 19, "unit": "%"}, {"measurement": "Percentage increase in heart rate at EC20", "setting": "[5]", "result": 9, "unit": "%"}, {"measurement": "EC20 left-ventricular pressure", "setting": "[5]", "result": 40, "unit": "nmol"}, {"measurement": "[EC40 pot.] theophylline / [EC40 pot.] substance", "setting": "[6]", "result": 661}, {"measurement": "EC40", "setting": "[6]", "result": 0.631, "unit": "µM"}]}, {"smiles": "COc1ccc(-c2ccc(=O)[nH]n2)cc1", "note": "[compound 19]", "values": [{"measurement": "tolerated dose", "setting": "[1]; mouse, 10080 min", "result": "> 400"}, {"measurement": "EC50", "setting": "[3]", "result": 8.91, "unit": "µM"}, {"measurement": "[EC40 pot.] left atrium / [EC50] trachea", "setting": "[3]", "result": 19.1}, {"measurement": "[EC50] theophylline / [EC50] substance", "setting": "[3]", "result": 15.1}, {"measurement": "Emax", "setting": "[5]; after 1000 nMol, read-out: Emax left-ventricular pressure", "result": 45, "unit": "%"}, {"measurement": "Emax", "setting": "[5]; at Emax, 1000 nMol, read-out: Percentage increase in heart rate at Emax", "result": 11, "unit": "%"}, {"measurement": "Percentage increase in heart rate at EC20", "setting": "[5]", "result": 6, "unit": "%"}, {"measurement": "EC20 left-ventricular pressure", "setting": "[5]", "result": 160, "unit": "nmol"}, {"measurement": "[EC40 pot.] theophylline / [EC40 pot.] substance", "setting": "[6]", "result": 4.7}, {"measurement": "EC40", "setting": "[6]", "result": 170, "unit": "µM"}]}]}
